Data from ChEMBL document CHEMBL3044590, “Nematicidal activity of plant essential oils and components from coriander (Coriandrum sativum), Oriental sweetgum (Liquidambar orientalis), and valerian (Valeriana wallichii) essential oils against pine wood nematode (Bursaphelenchus xylophilus)” (2008).

Columns and labels:
Type in all cases: functional
[1] = test system: Bursaphelenchus xylophilus; test: Nematicidal activity against Bursaphelenchus xylophilus assessed as nematode mortality at 2 mg/mL measured 24 hr post dose by microscopy
[2] = test system: Bursaphelenchus xylophilus; test: Nematicidal activity against Bursaphelenchus xylophilus assessed as nematode mortality at 0.8 mg/mL measured 24 hr post dose by microscopy
[3] = test system: Bursaphelenchus xylophilus; test: Nematicidal activity against Bursaphelenchus xylophilus assessed as nematode mortality at 0.4 mg/mL measured 24 hr post dose by microscopy
[4] = test system: Bursaphelenchus xylophilus; test: Nematicidal activity against Bursaphelenchus xylophilus assessed as nematode mortality at 0.6 mg/mL measured 24 hr post dose by microscopy
[5] = test system: Bursaphelenchus xylophilus; test: Nematicidal activity against Bursaphelenchus xylophilus assessed as nematode mortality at 1 mg/mL measured 24 hr post dose by microscopy
[6] = test system: Bursaphelenchus xylophilus; test: Nematicidal activity against Bursaphelenchus xylophilus assessed as nematode mortality at 0.2 mg/mL measured 24 hr post dose by microscopy

Row | SMILES | mortality at 2000 µg/mL [1] [%] | mortality at 800 µg/mL [2] [%] | mortality at 400 µg/mL [3] [%] | mortality at 600 µg/mL [4] [%] | mortality at 1000 µg/mL [5] [%] | mortality at 200 µg/mL [6] [%]
1 | CCCCCCC=O [HEPTANAL] | 40.8 | – | – | – | – | –
2 | CCCCCCCCCCO [DECANOL] | 100 | 100 | 100 | 100 | 100 | 100
3 | OCc1ccccc1 [BENZYL ALCOHOL] | 3.8 | – | – | – | – | –
4 | C=Cc1ccccc1 [STYRENE] | 6.7 | – | – | – | – | –
5 | CC(O)c1ccccc1 (stereo not given) [PHENYL ETHANOL] | 3 | – | – | – | – | –
6 | CCCCCCCCCCCC=O [DODECANAL] | 100 | 77.8 | 20.8 | 37.6 | 86.3 | 11.5
7 | CC(=O)OC/C=C(\C)CCC=C(C)C [GERANYL ACETATE] | 7 | – | – | – | – | –
8 | CCCCCCC/C=C/CO | 100 | 100 | 100 | 100 | 100 | 98
9 | C/C=C\c1cc(OC)c(OC)cc1OC [CIS-ASARONE] | 100 | 100 | 47.9 | 96.2 | 100 | 15.8
10 | CCCCCCCCC [NONANE] | 1.7 | – | – | – | – | –
11 | CCCCCCCCCCC=O [UNDECANAL] | 100 | 90.5 | 34.1 | 64.1 | 98.7 | 17.8
12 | CCCCCCCCC=O [NONANAL] | 100 | 83.4 | 3.6 | 59.5 | 95.8 | 1.1
13 | OC/C=C/c1ccccc1 [CINNAMIC ALCOHOL] | 100 | 100 | 57.6 | 99.5 | 100 | 11.3
14 | OCCCc1ccccc1 [HYDROCINNAMYL ALCOHOL] | 17.2 | – | – | – | – | –
15 | CCCCCCCC=O [OCTANAL] | 100 | 79.3 | 31.2 | 55.2 | 89 | 3.5
16 | O=Cc1ccccc1 [BENZALDEHYDE] | 100 | 77.5 | 7.4 | 45.6 | 94.1 | 1.9
17 | C=C/C(C)=C/CC=C(C)C [OCIMENE] | 16.2 | – | – | – | – | –
18 | CCCCCCCCCC=O [DECANAL] | 100 | 97.3 | 25.1 | 34.2 | 100 | 3
19 | C/C=C/c1cc(OC)c(OC)cc1OC [TRANS-ASARONE] | 12.1 | – | – | – | – | –
20 | CC(=O)c1ccccc1 [ACETOPHENONE] | 5.3 | – | – | – | – | –
